# Reference: patent publication US9492471B2, “Methods of treating a disease or disorder associated with Bruton'S Tyrosine Kinase” (Celgene Avilomics Research, Inc., priority 2013, dated 2016)
# Like-named read-outs stand apart in the source and are kept apart here.
# Legend:
# Assay in all cases: HotSpot kinase profiling
# Format in all cases: biochemical
# [1] = target: T1, CK1g3 (Homo sapiens, UniProt Q9Y6M4)
# T1 construct: purchased Reaction Biology Corp
# In short: (§1)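 Radiometric kinase assay with P81 filter capture; each kinase was added to fresh substrate plus cofactors in reaction buffer and incubated 2 h at room temperature. Unreacted phosphate was washed off with 0.1% phosphoric acid before detection; percent inhibition is relative to DMSO control, averaged over replicates.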
# [2] = target: T2, GRK4 (Homo sapiens, UniProt P32298)
# T2 construct: purchased Reaction Biology Corp
# In short: as §1
# [3] = target: T3, MLK2/MAP3K10 (Homo sapiens, UniProt Q02779)
# T3 construct: purchased Reaction Biology Corp
# In short: as §1
# [4] = target: T4, GRK6 (Homo sapiens, UniProt P43250)
# T4 construct: purchased Reaction Biology Corp
# In short: as §1
# [5] = target: T5, TGFBR2 (Homo sapiens, UniProt P37173)
# T5 construct: purchased Reaction Biology Corp
# In short: as §1
# [6] = target: T6, MARK1 (Homo sapiens, UniProt Q9P0L2)
# T6 construct: purchased Reaction Biology Corp
# In short: as §1
# [7] = target: T7, PKG1a (Homo sapiens, UniProt Q13976)
# T7 construct: purchased Reaction Biology Corp
# T7 sequence (Q13976 1-671): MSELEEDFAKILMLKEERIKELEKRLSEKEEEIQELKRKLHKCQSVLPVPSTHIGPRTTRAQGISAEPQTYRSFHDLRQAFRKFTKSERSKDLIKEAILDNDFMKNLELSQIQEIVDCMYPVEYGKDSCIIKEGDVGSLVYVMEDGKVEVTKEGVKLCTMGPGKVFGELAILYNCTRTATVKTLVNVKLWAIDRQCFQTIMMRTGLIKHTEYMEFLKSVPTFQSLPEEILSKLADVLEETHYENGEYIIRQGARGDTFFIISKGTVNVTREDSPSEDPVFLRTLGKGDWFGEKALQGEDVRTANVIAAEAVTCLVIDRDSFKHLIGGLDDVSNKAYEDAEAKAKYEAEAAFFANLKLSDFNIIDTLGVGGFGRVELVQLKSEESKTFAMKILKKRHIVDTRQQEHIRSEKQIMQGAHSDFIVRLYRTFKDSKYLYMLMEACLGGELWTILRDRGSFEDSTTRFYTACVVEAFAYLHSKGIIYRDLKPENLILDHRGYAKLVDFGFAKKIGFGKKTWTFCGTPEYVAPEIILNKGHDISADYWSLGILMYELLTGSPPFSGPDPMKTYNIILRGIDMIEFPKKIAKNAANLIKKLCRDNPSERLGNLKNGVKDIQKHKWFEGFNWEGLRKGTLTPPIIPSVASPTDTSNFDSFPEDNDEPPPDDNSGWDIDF
# In short: as §1
# [8] = target: T8, ERK7/MAPK15 (Homo sapiens, UniProt Q8TD08)
# T8 construct: purchased Reaction Biology Corp
# T8 sequence (Q8TD08 1-544): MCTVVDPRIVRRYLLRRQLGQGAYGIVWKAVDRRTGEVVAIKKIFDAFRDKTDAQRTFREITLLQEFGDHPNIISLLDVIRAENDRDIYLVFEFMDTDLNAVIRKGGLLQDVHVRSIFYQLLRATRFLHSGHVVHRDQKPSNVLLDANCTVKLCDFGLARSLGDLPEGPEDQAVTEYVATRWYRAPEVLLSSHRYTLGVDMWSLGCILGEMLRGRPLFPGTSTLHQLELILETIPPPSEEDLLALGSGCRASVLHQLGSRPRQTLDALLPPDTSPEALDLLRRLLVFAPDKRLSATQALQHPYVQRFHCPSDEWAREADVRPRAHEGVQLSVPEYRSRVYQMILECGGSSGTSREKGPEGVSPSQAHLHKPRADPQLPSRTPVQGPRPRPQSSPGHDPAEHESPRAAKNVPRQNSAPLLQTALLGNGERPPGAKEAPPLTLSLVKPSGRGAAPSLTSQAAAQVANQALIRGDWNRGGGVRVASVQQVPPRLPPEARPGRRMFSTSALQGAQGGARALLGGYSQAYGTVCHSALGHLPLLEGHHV
# In short: as §1
# [9] = target: T9, P38g (Homo sapiens, UniProt P53778)
# T9 construct: purchased Reaction Biology Corp
# T9 sequence (P53778 1-367): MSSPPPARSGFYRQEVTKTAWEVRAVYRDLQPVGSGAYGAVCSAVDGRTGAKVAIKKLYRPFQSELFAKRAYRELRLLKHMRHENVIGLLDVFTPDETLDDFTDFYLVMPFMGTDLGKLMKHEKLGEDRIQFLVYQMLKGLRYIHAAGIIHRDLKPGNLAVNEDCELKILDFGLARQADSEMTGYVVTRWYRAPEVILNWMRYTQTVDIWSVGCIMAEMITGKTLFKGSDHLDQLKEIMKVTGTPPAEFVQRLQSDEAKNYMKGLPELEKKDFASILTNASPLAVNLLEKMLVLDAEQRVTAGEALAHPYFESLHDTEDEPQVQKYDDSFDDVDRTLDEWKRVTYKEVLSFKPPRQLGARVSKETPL
# In short: as §1
# [10] = target: T10, FGFR3 (Homo sapiens, UniProt P22607)
# T10 construct: purchased Reaction Biology Corp
# In short: as §1
# [11] = read-out: % Enzyme Activity (relative to DMSO controls) Run 1
# [12] = read-out: % Enzyme Activity (relative to DMSO controls) Run 2
# T6 sequence (Q9P0L2 whole entry): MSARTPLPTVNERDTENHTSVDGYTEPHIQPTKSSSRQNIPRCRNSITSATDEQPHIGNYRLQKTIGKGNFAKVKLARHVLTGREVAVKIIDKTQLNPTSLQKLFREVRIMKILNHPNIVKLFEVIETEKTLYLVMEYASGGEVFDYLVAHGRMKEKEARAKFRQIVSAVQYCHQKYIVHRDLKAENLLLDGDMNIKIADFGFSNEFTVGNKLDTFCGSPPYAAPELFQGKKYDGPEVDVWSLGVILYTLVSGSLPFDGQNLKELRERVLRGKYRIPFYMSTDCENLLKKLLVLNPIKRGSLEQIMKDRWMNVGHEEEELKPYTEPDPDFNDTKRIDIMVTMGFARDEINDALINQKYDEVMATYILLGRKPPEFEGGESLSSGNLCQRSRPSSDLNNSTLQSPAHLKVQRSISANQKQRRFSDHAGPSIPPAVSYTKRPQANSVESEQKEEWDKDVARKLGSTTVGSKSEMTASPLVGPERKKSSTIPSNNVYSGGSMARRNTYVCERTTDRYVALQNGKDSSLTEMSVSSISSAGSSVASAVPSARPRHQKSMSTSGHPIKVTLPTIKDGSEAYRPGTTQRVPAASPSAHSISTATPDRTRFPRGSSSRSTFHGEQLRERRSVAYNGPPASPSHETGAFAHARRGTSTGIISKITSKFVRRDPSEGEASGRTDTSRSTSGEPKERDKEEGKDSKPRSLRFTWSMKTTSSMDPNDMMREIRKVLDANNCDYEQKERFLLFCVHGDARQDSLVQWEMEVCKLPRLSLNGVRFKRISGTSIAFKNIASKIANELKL
# T10 sequence (P22607 23-806): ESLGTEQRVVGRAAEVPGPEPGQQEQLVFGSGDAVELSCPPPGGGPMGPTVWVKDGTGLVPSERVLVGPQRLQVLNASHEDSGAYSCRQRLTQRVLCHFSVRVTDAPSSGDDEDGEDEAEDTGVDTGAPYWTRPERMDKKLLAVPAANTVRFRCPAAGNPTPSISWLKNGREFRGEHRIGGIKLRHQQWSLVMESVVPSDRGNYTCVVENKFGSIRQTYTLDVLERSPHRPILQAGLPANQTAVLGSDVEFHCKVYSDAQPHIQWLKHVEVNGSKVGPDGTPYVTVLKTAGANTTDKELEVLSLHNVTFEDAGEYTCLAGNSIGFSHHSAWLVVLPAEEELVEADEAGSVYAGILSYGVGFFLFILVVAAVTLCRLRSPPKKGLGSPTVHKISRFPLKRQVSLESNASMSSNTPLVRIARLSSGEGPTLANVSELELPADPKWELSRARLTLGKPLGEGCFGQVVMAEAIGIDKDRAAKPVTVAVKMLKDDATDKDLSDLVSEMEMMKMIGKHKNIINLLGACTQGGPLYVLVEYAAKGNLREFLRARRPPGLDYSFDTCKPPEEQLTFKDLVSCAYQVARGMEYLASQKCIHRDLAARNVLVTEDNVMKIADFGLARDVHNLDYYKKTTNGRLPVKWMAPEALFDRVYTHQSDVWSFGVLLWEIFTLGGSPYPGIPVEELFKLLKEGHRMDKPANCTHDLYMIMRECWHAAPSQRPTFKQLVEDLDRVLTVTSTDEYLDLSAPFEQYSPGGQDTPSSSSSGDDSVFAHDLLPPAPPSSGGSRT
# T4 sequence (P43250 whole entry): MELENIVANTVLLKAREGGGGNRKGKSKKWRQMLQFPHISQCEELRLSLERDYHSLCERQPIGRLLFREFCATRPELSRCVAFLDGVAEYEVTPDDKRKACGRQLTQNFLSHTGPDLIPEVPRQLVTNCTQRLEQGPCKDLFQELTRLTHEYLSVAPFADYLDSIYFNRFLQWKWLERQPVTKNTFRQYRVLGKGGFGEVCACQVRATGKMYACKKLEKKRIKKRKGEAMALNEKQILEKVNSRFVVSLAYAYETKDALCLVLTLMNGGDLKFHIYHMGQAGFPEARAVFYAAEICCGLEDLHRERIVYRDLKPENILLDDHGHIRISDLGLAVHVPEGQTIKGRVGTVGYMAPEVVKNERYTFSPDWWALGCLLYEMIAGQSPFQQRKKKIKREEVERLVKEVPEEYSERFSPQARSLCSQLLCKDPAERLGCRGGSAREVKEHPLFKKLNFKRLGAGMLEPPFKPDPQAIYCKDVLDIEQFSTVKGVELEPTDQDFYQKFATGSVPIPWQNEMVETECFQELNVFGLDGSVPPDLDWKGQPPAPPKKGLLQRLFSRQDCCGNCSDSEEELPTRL
# T2 sequence (P32298 whole entry): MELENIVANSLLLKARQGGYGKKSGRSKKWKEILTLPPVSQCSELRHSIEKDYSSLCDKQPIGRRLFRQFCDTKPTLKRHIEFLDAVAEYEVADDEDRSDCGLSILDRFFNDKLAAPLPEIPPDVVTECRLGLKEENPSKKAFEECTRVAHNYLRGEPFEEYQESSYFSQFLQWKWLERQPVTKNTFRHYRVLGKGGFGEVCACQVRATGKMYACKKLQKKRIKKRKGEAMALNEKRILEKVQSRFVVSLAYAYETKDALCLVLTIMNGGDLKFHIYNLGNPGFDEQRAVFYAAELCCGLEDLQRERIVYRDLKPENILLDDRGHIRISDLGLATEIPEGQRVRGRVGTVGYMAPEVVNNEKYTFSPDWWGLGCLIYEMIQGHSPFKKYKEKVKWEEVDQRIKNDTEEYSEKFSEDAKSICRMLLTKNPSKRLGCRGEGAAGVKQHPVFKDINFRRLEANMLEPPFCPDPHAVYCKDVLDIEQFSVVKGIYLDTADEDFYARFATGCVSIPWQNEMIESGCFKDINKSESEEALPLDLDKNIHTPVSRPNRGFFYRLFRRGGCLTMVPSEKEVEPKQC
# T5 sequence (P37173 23-567): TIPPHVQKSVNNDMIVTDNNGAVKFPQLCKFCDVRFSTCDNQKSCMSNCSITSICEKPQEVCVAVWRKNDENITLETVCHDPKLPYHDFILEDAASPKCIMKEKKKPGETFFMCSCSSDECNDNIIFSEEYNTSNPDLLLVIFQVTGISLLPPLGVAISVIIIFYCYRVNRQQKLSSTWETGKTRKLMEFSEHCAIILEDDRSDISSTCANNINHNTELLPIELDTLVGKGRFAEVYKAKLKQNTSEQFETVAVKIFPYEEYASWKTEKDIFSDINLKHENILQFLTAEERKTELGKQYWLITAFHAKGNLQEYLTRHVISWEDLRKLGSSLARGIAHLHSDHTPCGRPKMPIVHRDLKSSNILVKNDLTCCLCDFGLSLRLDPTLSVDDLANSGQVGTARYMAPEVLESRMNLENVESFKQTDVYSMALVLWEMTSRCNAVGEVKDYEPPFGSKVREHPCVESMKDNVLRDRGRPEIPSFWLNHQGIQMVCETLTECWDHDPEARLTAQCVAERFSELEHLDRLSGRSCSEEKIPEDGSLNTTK
# T3 sequence (Q02779 whole entry): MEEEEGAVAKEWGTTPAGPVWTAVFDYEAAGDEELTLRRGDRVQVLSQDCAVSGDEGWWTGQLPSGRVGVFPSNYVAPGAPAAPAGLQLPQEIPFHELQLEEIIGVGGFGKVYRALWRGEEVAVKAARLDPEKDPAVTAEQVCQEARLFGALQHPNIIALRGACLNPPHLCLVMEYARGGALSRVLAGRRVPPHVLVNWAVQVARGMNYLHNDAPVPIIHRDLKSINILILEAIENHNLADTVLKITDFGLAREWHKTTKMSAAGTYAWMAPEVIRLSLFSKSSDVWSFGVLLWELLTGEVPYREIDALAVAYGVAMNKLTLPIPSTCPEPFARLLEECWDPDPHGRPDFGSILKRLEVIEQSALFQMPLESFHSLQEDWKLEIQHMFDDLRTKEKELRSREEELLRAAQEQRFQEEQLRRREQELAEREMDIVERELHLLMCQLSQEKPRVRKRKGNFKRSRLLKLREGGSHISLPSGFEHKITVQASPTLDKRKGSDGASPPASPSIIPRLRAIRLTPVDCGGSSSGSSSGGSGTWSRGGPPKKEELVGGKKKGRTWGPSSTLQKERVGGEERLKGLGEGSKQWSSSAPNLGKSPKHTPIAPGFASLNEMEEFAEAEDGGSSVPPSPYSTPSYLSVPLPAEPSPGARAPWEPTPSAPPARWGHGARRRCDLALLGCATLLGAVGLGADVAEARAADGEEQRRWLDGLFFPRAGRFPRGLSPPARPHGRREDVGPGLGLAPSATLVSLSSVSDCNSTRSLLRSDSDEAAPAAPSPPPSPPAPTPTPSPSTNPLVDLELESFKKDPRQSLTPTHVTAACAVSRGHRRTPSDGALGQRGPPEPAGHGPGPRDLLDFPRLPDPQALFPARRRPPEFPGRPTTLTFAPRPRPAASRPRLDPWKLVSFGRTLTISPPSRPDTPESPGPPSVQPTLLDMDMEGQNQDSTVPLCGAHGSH
# T1 sequence (Q9Y6M4 whole entry): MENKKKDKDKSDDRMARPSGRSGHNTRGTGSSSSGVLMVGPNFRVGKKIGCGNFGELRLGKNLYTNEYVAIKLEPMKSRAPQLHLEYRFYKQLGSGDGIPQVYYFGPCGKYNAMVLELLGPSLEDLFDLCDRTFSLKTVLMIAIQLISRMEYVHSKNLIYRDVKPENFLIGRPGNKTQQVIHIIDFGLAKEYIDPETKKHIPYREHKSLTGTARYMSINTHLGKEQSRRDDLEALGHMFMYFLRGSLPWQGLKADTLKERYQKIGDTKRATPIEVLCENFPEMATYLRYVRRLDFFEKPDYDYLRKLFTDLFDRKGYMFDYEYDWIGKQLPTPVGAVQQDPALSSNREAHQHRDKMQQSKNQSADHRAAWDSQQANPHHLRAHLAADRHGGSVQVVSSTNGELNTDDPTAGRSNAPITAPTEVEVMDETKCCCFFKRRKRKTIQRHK
structure (smiles),measurement,setting,value
C=CC(=O)Nc1cccc(Nc2nc(Nc3ccc(OCCOC)c(F)c3)ncc2F)c1 [Compound 2],inhibition at 3 µM,[1],15%
same,remaining activity at 3 µM,[1]; [11],84.2%
same,remaining activity at 3 µM,[1]; [12],85.8%
same,inhibition at 3 µM,[2],-6.61%
same,remaining activity at 3 µM,[2]; [11],107%
same,remaining activity at 3 µM,[2]; [12],106%
same,inhibition at 3 µM,[3],54.6%
same,remaining activity at 3 µM,[3]; [11],45.4%
same,remaining activity at 3 µM,[3]; [12],45.3%
same,inhibition at 3 µM,[4],-3.03%
same,remaining activity at 3 µM,[4]; [11],102%
same,remaining activity at 3 µM,[4]; [12],104%
same,inhibition at 3 µM,[5],-0.19%
same,remaining activity at 3 µM,[5]; [11],98.1%
same,remaining activity at 3 µM,[5]; [12],102%
same,inhibition at 3 µM,[6],5.86%
same,remaining activity at 3 µM,[6]; [11],90.9%
same,remaining activity at 3 µM,[6]; [12],97.3%
same,inhibition at 3 µM,[7],8.73%
same,remaining activity at 3 µM,[7]; [11],88%
same,remaining activity at 3 µM,[7]; [12],94.5%
same,inhibition at 3 µM,[8],35.1%
same,remaining activity at 3 µM,[8]; [11],63.8%
same,remaining activity at 3 µM,[8]; [12],66%
same,inhibition at 3 µM,[9],-5.53%
same,remaining activity at 3 µM,[9]; [11],105%
same,remaining activity at 3 µM,[9]; [12],106%
same,inhibition at 3 µM,[10],68%
same,remaining activity at 3 µM,[10]; [11],32.1%
same,remaining activity at 3 µM,[10]; [12],31.8%
